These results are taken from EP0188169A1, “Bis-2-(4-hydroxy-2-isopropyl-5-methyl-phenoxy)-ethyl amines, process for their synthesis and pharmaceutical preparations containing them” (CORTIAL S.A., priority 1984, dated 1986).

Read-outs that look alike come from different tables or passages of the source.

The test system of one data set is souris. Put plainly: Acute toxicity (mortality, LD50) in mice. Type of data set: in vivo. Conditions: mouse.
Data set [1] in a line: Acute toxicity (mortality, LD50) in mice. Type of data set: in vivo. Conditions: in vivo, mouse.
Data set [2] concerns anaphylaxie passive cutanée. The experiment in a line: Antiallergic activity: passive cutaneous anaphylaxis test. Type of data set: in vivo. Conditions: rat, oral. Here is the method: Activité antiallergigue : dans le test de l'anaphylaxie passive cutanée, le COR28 35 administré à 5 mg/kg par voie orale chez le rat entraine 60% d'activité. La prométhazine, administrée dans les mêmes conditions, entraine 53% d'activité à la dose de 10 mg/kg.

The subject of data set [3] is tremblements musculaires produits chez la souris par l'administration de 0,5 mg/kg d'oxotrémorine. The experiment in a line: Anticholinergic activity: oxotremorine-induced muscle tremors in mice. Type of data set: in vivo. To be noted: mouse, intraperitoneal, assessed one hour after administration, oxotremorine 0,5 mg/kg s.c. Here is the method:
Activité anticholineraiaue : l'activité inhibitrice des produits de la présente invention vis à vis des tremblements musculaires produits chez la souris par l'administration de 0,5 mg/kg d'oxotrémorine par voie sous cutanée est déterminée. L'eftet est apprécié une heure après l'administration par voie intrapéritonéale des produits à tester; dans ces conditions, le COR28 35 est actif à la dose de 5mg/kg.

In data set [4] the test system is souris rendue hy- percholestérotémique. The experiment in a line: Hypolipidaemic activity in mice made hypercholesterolaemic by diet. Type of data set: in vivo. To be noted: mouse, oral, 200 mg/kg on days 6 and 7 of the diet. Here is the method:
Activité hvoolioidémiante : chez la souris rendue hy- percholestérotémique par un régime riche en cholestérol et acide cholique pendant 7 jours, l'administration de 200 mg/kg de COR28 35 par voie orale, le 6° et le 7° jour, entraine une diminution du cholestérol sérique de 17% et une diminution des HP-bétalipoprotéines de 27% accompagnées d'une diminution du rapport VLDL + LDL/cholestérol.

In data set [5] the test system is rats spontanément hypertendus. Put plainly: Antihypertensive activity in spontaneously hypertensive rats (oral). Type of data set: in vivo. Here is the method:
Activité antihvoertensive : le produit à tester est administré par voie orale à des rats spontanément hypertendus. La pression artérielle est mesurée de façon indirecte en utilisant un sphygmomanomètre. Pour le COR28 35 administré à la dose de 100 mg/kg/j pendant 2 jours, la chute de pression maximale observée est de 14% le premier jour de traitement, 1 heure après le gavage. […] Administré dans les mêmes conditions à la dose de 50 mg/kg/j, la chute de pression artérielle maximale est de 15% 1 heure après gavage.

Data set [6] has as its system contraction induite par 5.10^-7g/ml de sérotonine sur iléon isolé de cobaye. Put plainly: Antiserotoninergic activity: serotonin-induced contraction of isolated guinea-pig ileum. Type of data set: cell-based. To be noted: serotonin 5.10^-7g/ml; compound in contact 15 mn before the agonist; limits in brackets; read-out: CI50 (ou concentration inhibant 50% des contractions). The source says: Activité antisérotoninergigue : le COR28 35 inhibe in vitro la contraction induite par 5.10^-7g/ml de sérotonine sur iléon isolé de cobaye. L'effet maximum est obtenu quand le COR28 35 est mis au contact de l'organe isolé 15 mn avant d'introduire l'agoniste. La CI50 (ou concentration inhibant 50% des contractions) est dans ces conditions de 1,58.10^-7(1,00.10^-7-2,51.10^-7) mole/l.

Data set [7] deals with effet hypertenseur induit par 4.10-' mg/kg de phényléphrine. The experiment in a line: Alpha-blocking activity in conscious normal rats: antagonism of the phenylephrine pressor effect (oral). Type of data set: in vivo, rat Sprague-Dawley normal vigile. The source says:
L'activité alphabloquante des produits selon la présente invention à également été déterminée chez le rat Sprague-Dawley normal vigile. Les veines jugulaires et les artères carotides des animaux sont cathétérisées sous anesthésie à l'éther. Après récupération d'une heure, la pression artérielle et la fréquence cardiaque sont enregistrées de façon continue. L'activité des produits à tester, administrés par voie oral, vis à vis de l'effet hypertenseur induit par 4.10-' mg/kg de phényléphrine est déterminée. On indique ci-après pour le COR28 35, en fonction de la dose administrée, l'activité maximale et le temps au bout duquel l'activité résiduelle est égale à 50% de l'activité maximale : 5 mg/kg, -38,75%, 66 mm; 10 mg/kg, --37.18%. 65 mn; 20 mg/kg, -66,37%, 66 mn.

Data set [8] relates to hypertension induite par la phényléphrine. The experiment in a line: Alpha-blocking activity in vivo: antagonism of phenylephrine-induced hypertension in pithed, bivagotomised rats (i.v.). To be noted: for ED50: Rattus norvegicus, iv, read-out: DE50 (the source's name). Further details: species or system rats amyélés et bivagotomisés. The source says: ln vivo l'activité alpha bloquante est appréciée par la détermination de l'antagonisme de l'hypertension induite par la phényléphrine. Le produit à tester est administré par voie intraveineuse à des rats amyélés et bivagotomisés selon la technique de J.S.Gillespie et T.S. Muir (Br.J. Pharmac. Chemother., 1967, 30, 78-87). On indique ci-après pour le COR28 35, en fonction de la dose administrée, l'activité maximale et le temps au bout duquel l'activité résiduelle est égale à 50% de l'activité maximale : 4,42.10^-7 M/kg, --77,8%. 30 mn; 10^-6 M/kg, -94,5%, 55 mn; 3,53.10^-6 M/kg, -97,1%, 90 mn. La DE50 déterminée dans ces conditions pour le COR28 35 est de 1,48.10^-8 mole/kg au bout de 2 mn, 6,77.10^-7 mole/kg au bout de 30 mn et 1,87.10^-6 mole/kg au bout de 60 mn.

Data set [9] concerns contractions de strips aortiques isolés de lapin induites par la noradrénaline. The experiment in a line: Alpha-blocking activity in vitro: antagonism of noradrenaline-induced contractions of isolated rabbit aortic strips. Type of data set: cell-based. To be noted: Oryctolagus cuniculus, 1 h; noradrenaline 2.10^-6 mole/l; compound added 60 mn before the agonist; limits in brackets; read-out: CI50 (concentration inhibant 50% des contractions). The source says:
Activité alohabloauante : In vitro l'activité alphabloquante est appréciée par la détermination de l'antagonisme des contractions de strips aortiques isolés de lapin induites par la noradrénaline employée à la concentration de 2.10^-6 mole/l selon une technique dérivée de celle de Furchgott et Bhadrakom (J. Pharmacol., 1953, 108, 129-43). L'activité maximale est obtenue quand le COR28 35 est introduit dans le bain 60 mn avant l'agoniste. La CI50 (concentration inhibant 50% des contractions) est égale dans ces conditions à 1,52.10-' (1,12.10^-7 -2,07.10-') mole/l.

For data set [10], the system named is contractions induites par 2,5.10^-8 g/ml d'angiotensine I sur des préparations de segments d'iléon de cobaye. The experiment in a line: Inhibition of angiotensin I-induced contractions of guinea-pig ileum segments. Conditions: concentration 10-' g/ml; angiotensin I 2,5.10^-8 g/ml added 2 mn after the compound. Type of data set: cell-based. The source says: L'activité inhibitrice des produits de la présente invention vis à vis des contractions induites par 2,5.10^-8 g/ml d'angiotensine I sur des préparations de segments d'iléon de cobaye a été déterminée. L'angiotensine 1 est introduite dans le bain 2 mn après le produit à tester. Dans ces conditions, le COR28 35 entraine 51% d'inhibition des contractions à la concentration de 10-' g/ml.

Take `Cc1cc(OCCN(C)CCOc2cc(C)c(O)cc2C(C)C)c(C(C)C)cc1O` [COR28 35]: the mortalité result with souris (intraperitoneal, 500 mg/kg) was “aucune mortalité”; in the data set on souris (oral, 300 mg/kg), “aucune mortalité”. Moreover, the mortality in [1] (ip, intraperitoneal, 1000 mg/kg, read-out: mortalité) amounted to 40%. The LD50 in data set [1] (intravenous, limits in brackets, read-out: DL50 (the source's name)) was found to be 53.5 mg/kg. In addition, the activité in data set [2] (5 mg/kg) worked out at 60%. For the same compound, the “activité inhibitrice vis à vis des tremblements musculaires” value in [3] is reported as “actif”. In addition, the “diminution des HP-bétalipoprotéines” value in data set [4] came to 27%. Moreover, the “diminution du cholestérol sérique” value in [4] came to 17%. Further, the “rapport VLDL + LDL/cholestérol” value in data set [4] is listed as “diminution”. Moreover, the “chute de pression artérielle maximale” value in [5] (50 mg/kg/j, 1 hour after gavage) is recorded as 15%. Besides, the “pression par rapport au lot témoin” value in [5] (100 mg/kg/j for 2 days, 6 hours after gavage on the second day) is reported as “significativement abaissée”. Also, the “chute de pression maximale observée” value in [5] (100 mg/kg/j for 2 days, first day of treatment, 1 hour after gavage) stood at 14%. Further, the IC50 in [6] is 0.158 µM; in [9] it was 0.152 µM. Further, the activité maximale is -38,75% in [7] (5 mg/kg); -66,37% in [7] (20 mg/kg); -97,1% in data set [8] (i.v., 3,53.10^-6 M/kg); -94,5% in data set [8] (i.v., 10^-6 M/kg). The temps au bout duquel l'activité résiduelle est égale à 50% de l'activité maximale in data set [7] (5 mg/kg) worked out at 66 min; in data set [7] (10 mg/kg), 65 mn; in data set [7] (20 mg/kg) it was 66 mn; in [8] (i.v., 3,53.10^-6 M/kg), 90 mn; in [8] (i.v., 4,42.10^-7 M/kg) it was 30 mn; in data set [8] (i.v., 10^-6 M/kg), 55 mn. Also, the ED50 turned out to be 0.0148 µmol/kg in data set [8] (2 min, i.v., after 2 mn); 0.677 µmol/kg in [8] (0.5 h, i.v., after 30 mn); 1.87 µmol/kg in [8] (1 h, i.v., after 60 mn). Besides, the inhibition des contractions in data set [10] is 51%.

`CC(CN1c2ccccc2Sc2ccccc21)N(C)C` (centres unmarked) [prométhazine, reference compound] showed an activité in [2] (10 mg/kg) of 53%.
